# Data published in patent publication US6682931B2, “Recovering cryopreserved conifer embryogenic cultures” (MeadWestvaco Corporation, priority 1999, dated 2004).
# Marks after values point to notes of the source that are not given here.
# Columns and labels:
# Type in all cases: cell-based
# [1] = system: loblolly pine (Pinus taeda) embryogenic cell lines; experiment: Percent increase in fresh weight of pine embryogenic cell lines retrieved from cryopreservation on post-cryopreservation recovery medium (Examples 1 and 2); settings: for Additional Culture Growth on DCR1 + ABA: 30 mg/l ABA vs medium without ABA
# Procedure: Each embryogenic culture was cryopreserved as follows. Embryogenic tissue (7 to 14 days since the last subculture) was dispersed in liquid DCR1 medium (the DCR1 medium of Table I without the GELRITE) which contained 0.4 molar sorbitol as described in U.S. Pat. No. 5,506,136. The amount of embryogenic tissue used was sufficient to result in a 40% suspension (i.e., 4 ml volume of embryogenic tissue added to 6 ml of liquid medium). An Erlenmeyer flask containing the suspension was incubated for 24 hours in the dark on a gyrotory shaker (100 rpm), and then placed on ice. Five aliquots of the cryoprotective chemical dimethyl sulfoxide (DMSO) were aseptically added to the suspension to bring the final concentration of DMSO to 10% (vol/vol). One milliliter aliquots of the suspension containing DMSO were then transferred to 2 ml NALGENE® cryogenic vials (manufactured by the Nalge Co.), placed in programmable freezer (Model 9000 manufactured by Gordinier Electronics) and cooled to −35° C. at a rate of 0.33° C. per minute. The cultures were cryopreserved by immersing the cryogenic vials in liquid nitrogen inside a cryogenic storage tank (Model #CY50945 manufactured by Thermolyne, Inc.). The cultures remained in cryogenic storage for at least 36 months prior to retrieval.
# The cryogenic vials were retrieved from the cryogenic storage tank and placed in 44° C. water until the ice crystals in the frozen embryogenic cultures were melted. The thawed culture from each cryogenic vial was aseptically pipetted and dispensed onto a sterile 7 cm×7 cm NITEX nylon 35 μm pore size membrane (commercially available from Sefar, Inc.) which had been placed on top of two sterile filter papers (Whatman no. 2 commercially available from Whatman International Ltd.) to absorb excess liquid from the culture and membrane. Each nylon membrane containing embryogenic culture was then transferred to a DCR1 medium which served as a temporary recovery medium for 24 hours in order to lower the concentration of cryoprotective chemicals and osmotic agents contained in the culture.
# Each nylon membrane containing embryogenic tissue was then transferred to one of two post-cryopreservation medium treatments. One treatment was DCR1 medium without ABA. The other treatment was DCR1 medium with 30 mg/l of ABA. The initial fresh weight (FW0) of the embryogenic tissue was measured aseptically at this time. There were 3 plates (each derived from an individual cryogenic vial) per treatment and cell line. The embryogenic cultures on membranes were transferred after 24 hours, and thereafter, every 14 days to a new plate of the same medium. The culture environment during post-cryopreservation recovery and growth was 23° C. in the dark. At 25 days after retrieval from cryogenic storage the final fresh weight (FWF) of the proliferating embryogenic culture was measured. The growth of the embryogenic tissue during the post-cryopreservation treatments was calculated as a percent increase in fresh weight relative to the initial fresh weight as follows: ((FWF−FW0)/FW0)*100.
# Each cell line was cryopreserved as follows. The liquid suspension cultures (7 days since the last subculture) were aseptically centrifuged at 1500 rpm for 10 minutes (400 g-force) to separate the embryogenic tissue from the liquid medium. The supernatant medium was removed from the embryogenic tissue. To the remaining volume of centrifuged embryogenic tissue, was added an equal volume of liquid DCR1 medium containing 0.8 molar sorbitol, so that the final sorbitol concentration was 0.4 molar. An Erlenmeyer flasks containing each suspension was incubated for 24 hours in the dark on a gyrotory shaker (100 rpm), and then placed on ice. The cryoprotective chemical DMSO was added to the chilled cultures at one time to bring the final concentration of DMSO to 10% (vol/vol). […]
# [2] = system: loblolly pine embryogenic cell lines; experiment: Yield of stage 3 somatic embryos from embryogenic cultures retrieved from cryopreservation (Example 4); settings: for Total Number of Somatic Embryos Harvested: recovered on 30 mg/l ABA, nine weeks on embryo development medium
# Source text: The purpose of this experiment was to determine whether addition of ABA to the post-cryopreservation culture medium improved the yield of somatic embryos harvested from the cultures after they were retrieved from cryogenic storage. The six loblolly pine cell lines retrieved from cryogenic storage in Example 1 were used in this experiment. Embryogenic tissue from each cell line was dispersed onto nylon membranes using liquid DCR1 medium (formulation in Table 1 without the GELRITE). Four ml of embryogenic culture retrieved from cryogenic storage of each cell line and treatment (both the no ABA and the 30 mg/l ABA post-cryopreservation recovery medium) was added to 5 ml of liquid DCR1 medium and dispersed by agitation. One ml aliquots of the suspension were dispensed using a sterile 5-ml pipette with a cotton plug. Each 1 ml aliquot was transferred to the surface of a sterile 4 cm nylon membrane positioned on top of two sterile Whatman No. 2 filter papers in the bottom of an empty 15×100 mm sterile plastic culture plate. The nylon membranes with the dispersed embryogenic cultures were placed on either DCR1 medium containing 30 mg/l ABA or the same medium without any ABA depending on their respective post-cryopreservation recovery medium treatments from which they were derived. […] The tissue on the nylon membranes was cultured for 5-6 days at 23° C. in the dark to induce proliferation from the newly dispersed cultures. The nylon membranes with tissue were then transferred to an embryo development medium (see Table IV below) as described in U.S. Pat. No. 5,731,204 (Rutter et al.), to test the yield of stage 3 cotyledonary somatic embryos. The plates with membranes containing the embryogenic cultures were incubated in the dark at 23° C. The nylon membranes with the embryogenic cultures were transferred to new plates containing the same fresh embryo development medium every three weeks. After a total of nine weeks, the number of stage 3 embryos was counted on each membrane, and the data were analyzed using SAS GLM ANOVA statistical software.
# [3] = system: pitch×loblolly pine interspecies hybrid cell lines (AA-24, Q-01, Q-39); experiment: Mean culture fresh weight of embryogenic cultures retrieved from cryopreservation on post-cryopreservation recovery medium (Example 3)
# Source text: (§1) Five different pine embryogenic cell lines chosen at random from a long-term cryogenic storage bank were initiated, grown as liquid embryogenic suspension cultures, and cryopreserved via the methods described in Examples 1 and 2. The five cell lines included: one pitch×loblolly pine interspecies hybrid cell line (AA-24) and four loblolly pine cell lines (G-05, K-12, E-117 and O-72). Also, two additional pitch×loblolly pine F1 hybrid cell lines (Q-01 and Q-39) were initiated, grown as liquid embryogenic suspension cultures, and cryopreserved via the methods described in Examples 1 and 2 except that the initiation and maintenance media contained 10.0 mg/l of ABA (as taught in U.S. Pat. No. 5,856,191). The seven cell lines were retrieved from cryogenic storage, thawed, and transferred, via the procedure described in Example 2. Each cell line was subjected to three post-cryopreservation medium treatments. The first treatment was a control (i.e., DCR1 medium without ABA), the second treatment was DCR1 medium with 10 mg/l of ABA, and the third treatment was DCR1 medium with 30 mg/l of ABA. There were four plates (each derived from an individual cryogenic vial) per treatment and cell line.
# (§2) The embryogenic cultures on membranes were transferred after 24 hours from the temporary recovery medium onto the post-cryopreservation medium and thereafter, every 14 days to a new plate of the same post-cryopreservation medium. The culture environment during post-cryopreservation recovery and growth was 23° C. in the dark. At 28 days after retrieval from cryogenic storage the final fresh weight of the proliferating embryogenic culture was measured. The data were analyzed using the SAS GLM ANOVA statistical software program (Release 6.12 commercially available from the SAS Institute, Inc.), and the results are shown in Table III below.
# [4] = system: loblolly pine cell lines (G-05, K-12, E-117 and O-72); experiment: as above; settings: for % Increase of average culture fresh weight over control without ABA: all seven cell lines; for Mean Culture Fresh Weight, average of cell lines: average of all seven cell lines (loblolly and pitch×loblolly hybrid); for Mean Culture Fresh Weight: 28 days after retrieval
# Source text: as §1, §2
# [5] = system: loblolly pine (Pinus taeda) embryogenic cell lines; experiment: Percent increase in fresh weight of pine embryogenic cell lines retrieved from cryopreservation on post-cryopreservation recovery medium (Examples 1 and 2); settings: DCR1 + 30 mg/l ABA, 26 days after retrieval
# [6] = all six cell lines A1-A6, 30 mg/l ABA
smiles,measurement,setting,value
"CC1=CC(=O)CC(C)(C)[C@@]1(O)/C=C/C(C)=C\C(=O)O [ABA, abscisic acid]","Additional Culture Growth on DCR1 + ABA, overall","[1]; Average and Increase lines, all ten cell lines, 30 mg/l ABA",yes
same,Increase of overall average percent increase in fresh weight on medium with ABA compared to medium without ABA,"[1]; all ten cell lines, 30 mg/l ABA",70%
same,"Average Percent Increase in Fresh Weight, average of all ten cell lines","[1]; average of cell lines A1-A6 and B1-B4, DCR1 + 30 mg/l ABA",2469%
same,Additional Culture Growth on DCR1 + ABA,[1]; cell line A1,yes
same,Average Percent Increase in Fresh Weight,"[1]; cell line A1, DCR1 + 30 mg/l ABA, 25 days after retrieval",270%
same,Additional Culture Growth on DCR1 + ABA,[1]; cell line A2,yes
same,Average Percent Increase in Fresh Weight,"[1]; cell line A2, DCR1 + 30 mg/l ABA, 25 days after retrieval",7484%
same,Additional Culture Growth on DCR1 + ABA,[1]; cell line A3,yes
same,Average Percent Increase in Fresh Weight,"[1]; cell line A3, DCR1 + 30 mg/l ABA, 25 days after retrieval",4065%
same,Total fresh weight of embryogenic tissue from three cryogenic vials,"[1]; cell line A3, medium with ABA (30 mg/l)",5.17 grams
same,Additional Culture Growth on DCR1 + ABA,[1]; cell line A4,yes
same,Average Percent Increase in Fresh Weight,"[1]; cell line A4, DCR1 + 30 mg/l ABA, 25 days after retrieval",1652%
same,Additional Culture Growth on DCR1 + ABA,[1]; cell line A5,yes
same,Average Percent Increase in Fresh Weight,"[1]; cell line A5, DCR1 + 30 mg/l ABA, 25 days after retrieval",6479%
same,Additional Culture Growth on DCR1 + ABA,[1]; cell line A6,yes
same,Average Percent Increase in Fresh Weight,"[1]; cell line A6, DCR1 + 30 mg/l ABA, 25 days after retrieval",1221%
same,Additional Culture Growth on DCR1 + ABA,[1]; cell line B1,no
same,Additional Culture Growth on DCR1 + ABA,[1]; cell line B2,yes
same,Additional Culture Growth on DCR1 + ABA,[1]; cell line B3,yes
same,Average Percent Increase in Fresh Weight,"[1]; cell line B3, DCR1 + 30 mg/l ABA, 26 days after retrieval",3259%
same,Additional Culture Growth on DCR1 + ABA,[1]; cell line B4,yes
same,% Increase of total number of somatic embryos harvested over control without ABA,[2]; [6],332%
same,"Total Number of Somatic Embryos Harvested, total of the 6 cell lines",[2]; [6],588
same,Total Number of Somatic Embryos Harvested,[2]; cell line A1,404
same,Total Number of Somatic Embryos Harvested,[2]; cell line A2,82
same,Total Number of Somatic Embryos Harvested,[2]; cell line A3,0
same,Total Number of Somatic Embryos Harvested,[2]; cell line A4,43
same,Total Number of Somatic Embryos Harvested,[2]; cell line A5,15
same,Total Number of Somatic Embryos Harvested,[2]; cell line A6,44
same,Mean Culture Fresh Weight,"[3]; cell line AA-24, 10 mg/l ABA, 28 days after retrieval",5.22 g
same,Mean Culture Fresh Weight,"[3]; cell line AA-24, 30 mg/l ABA, 28 days after retrieval",5.45^a g
same,Mean Culture Fresh Weight,"[3]; cell line Q-01 (initiated and maintained with 10.0 mg/l ABA), 10 mg/l ABA, 28 days",2.91^b g
same,Mean Culture Fresh Weight,"[3]; cell line Q-01 (initiated and maintained with 10.0 mg/l ABA), 30 mg/l ABA, 28 days",3.81^ab g
same,Mean Culture Fresh Weight,"[3]; cell line Q-39 (initiated and maintained with 10.0 mg/l ABA), 10 mg/l ABA, 28 days",0.01 g
same,Mean Culture Fresh Weight,"[3]; cell line Q-39 (initiated and maintained with 10.0 mg/l ABA), 30 mg/l ABA, 28 days",0.17 g
same,% Increase of average culture fresh weight over control without ABA,[4]; 10 mg/l ABA,35%
same,% Increase of average culture fresh weight over control without ABA,[4]; 30 mg/l ABA,52%^a
same,"Mean Culture Fresh Weight, average of cell lines",[4]; 10 mg/l ABA,1.86 g
same,"Mean Culture Fresh Weight, average of cell lines",[4]; 30 mg/l ABA,2.10^a g
same,Mean Culture Fresh Weight,"[4]; cell line E-117, 10 mg/l ABA",0.38^a g
same,Mean Culture Fresh Weight,"[4]; cell line E-117, 30 mg/l ABA",0.33 g
same,Mean fresh weight higher than control treatment without ABA,"[4]; cell line G-05, 10 mg/l ABA",52%
same,Mean Culture Fresh Weight,"[4]; cell line G-05, 10 mg/l ABA",3.82^a g
same,Mean fresh weight higher than control treatment without ABA,"[4]; cell line G-05, 30 mg/l ABA",48%
same,Mean Culture Fresh Weight,"[4]; cell line G-05, 30 mg/l ABA",3.73 g
same,Mean Culture Fresh Weight,"[4]; cell line K-12, 10 mg/l ABA",0.55 g
same,Mean Culture Fresh Weight,"[4]; cell line K-12, 30 mg/l ABA",1.09^a g
same,Mean Culture Fresh Weight,"[4]; cell line O-72, 10 mg/l ABA",0.09 g
same,Mean Culture Fresh Weight,"[4]; cell line O-72, 30 mg/l ABA",0.10^a g
same,Average Percent Increase in Fresh Weight,[5]; cell line B1,195%
same,Average Percent Increase in Fresh Weight,[5]; cell line B2,29%
same,Average Percent Increase in Fresh Weight,[5]; cell line B4,34%
